Ten compounds from ChEMBL document CHEMBL3864124, “Tetrodecamycin: An unusual and interesting tetronate antibiotic” (2016) can be followed below.

≈ marks a conversion by molar mass, not a printed value.

Common to all, as to format: functional
Experiment [1] has as its system Staphylococcus aureus. In words: Antibacterial activity against methicillin resistant Staphylococcus aureus […] after 18 hrs by serial agar dilution method. On the technique in general: In agar dilution, organisms are placed on agar that contains the substance at set levels.
A short description of experiment [2]: Antibacterial activity against Photobacterium damselae subsp. piscicida after 18 hrs by serial agar dilution method.
The subject of experiment [3] is Staphylococcus aureus. In words: Antibacterial activity against Staphylococcus aureus after 18 hrs by serial agar dilution method.
Experiment [4] deals with Micrococcus luteus. In words: Antibacterial activity against Micrococcus luteus after 18 hrs by serial agar dilution method.
Experiment [5] relates to Bacillus subtilis. In words: Antibacterial activity against Bacillus subtilis after 18 hrs by serial agar dilution method.
Experiment [6] relates to Staphylococcus aureus. In words: Antibacterial activity against […] Staphylococcus aureus ATCC 25923 after 18 hrs by serial agar dilution method. As to conditions: ATCC 25923, 18 h.

For orientation: MIC means the lowest concentration that inhibits growth of the organism. `C[C@@H]1[C@@H]2OC3=C(C(=O)OC3CSCCO)C(=O)[C@@]1(C)[C@@H]1CCCC[C@@]1(O)[C@@H]2O` (some centres undefined): the MIC in experiment [1] is 25 µg/mL; in experiment [2] it was 6.25 µg/mL (≈ 15.2 µM). Regarding `C=C1OC(=O)C2=C1O[C@@H]1[C@@H](O)[C@]3(O)CCCC[C@H]3[C@](C)(C2=O)[C@@H]1C`, the MIC in experiment [3] lay in the range of 18.7 to 37.4 µM (≈ 6.25 to 12.5 µg/mL); in experiment [4] it was 18.7 to 37.4 µM (≈ 6.25 to 12.5 µg/mL); in experiment [1], 18.7 to 37.4 µM; in experiment [2], 1.56 to 18.7 µg/mL (≈ 4.67 to 55.9 µM); in experiment [5] it was 18.7 to 37.4 µM (≈ 6.25 to 12.5 µg/mL). The compound `C=C1OC(=O)C2=C1O[C@H]1C[C@](C)(CC(O)C1OC(=O)c1ccc3ccccc3c1)C2=O` (some centres undefined) displayed an MIC in experiment [6] of 8 µg/mL (≈ 19 µM).

`C=C1OC(=O)C2=C1O[C@@H]1C=CC[C@@](C)(C1)C2=O` returned an MIC in experiment [6] of 4 µg/mL (≈ 17.2 µM). As to `CC(=O)NCCCSCC1OC(=O)C2=C1O[C@@H]1[C@@H](O)[C@]3(O)CCCC[C@H]3[C@](C)(C2=O)[C@@H]1C` (some centres undefined), the MIC in experiment [1] amounted to 12.5 µg/mL; in experiment [2], 6.25 µg/mL (≈ 13.4 µM). In the same order, the values of `C[C@@H]1[C@@H]2OC3=C(C(=O)OC3(Br)CBr)C(=O)[C@@]1(C)[C@@H]1CCCC[C@@]1(O)[C@@H]2O` (some centres undefined) are over 100 µg/mL and 12.5 µg/mL (≈ 25.3 µM). In turn, `C=C1OC(=O)C2=C1O[C@H]1C[C@](C)(CC(O)C1O)C2=O` (some centres undefined) yielded an MIC in experiment [6] of over 128 µg/mL.

As for `C=C1OC(=O)C2=C1O[C@@H]1[C@@H](OC(=O)c3ccc4ccccc4c3)[C@]3(O)CCCC[C@H]3[C@](C)(C2=O)[C@@H]1C`, the figures for the MIC in experiment [1] and in experiment [2] were 1.61 µM and over 100 µg/mL, respectively. In experiment [6], `C=C1OC(=O)C2=C1O[C@H]1C[C@](C)(CC(OC(=O)c3ccc4ccccc4c3)C1O)C2=O` (some centres undefined) returned an MIC of 128 µg/mL (≈ 304 µM). Take `CC1OC(=O)C2=C1O[C@@H]1[C@@H](O)[C@]3(O)CCCC[C@H]3[C@](C)(C2=O)[C@@H]1C` (some centres undefined): the MIC is over 100 µg/mL in experiment [1] and 50 µg/mL (≈ 149 µM) in experiment [2].
